Results: US20240287080A1 (IDEAYA Biosciences Inc., priority 2021, published 2024)

Molecular target: T1, Pol theta (1-899) (Homo sapiens, UniProt O75417)
T1 construct: Pol theta (1-899) (5 nM) in assay buffer
Assay: Pol theta ATPase activity, NADH oxidation-coupled enzymatic assay (ATPase NADH coupling: Standard Screening: hPolQ)
Type: biochemical
Details: Pol theta (1-899) 5 nM, NADH oxidation-coupled ATPase assay; compounds of Table 3
How it was run: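 Rates of ATP hydrolysis taken from 60-min A340 traces of NADH oxidation via PK/LDH coupling, then fit four-parameter for IC50, Hill slope and max inhibition. Enzyme (5 nM, 1-899) and compounds preincubated 15 min before ATP 100 μM and 50-thymine ssDNA 300 nM (stock, equal volume added).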

T1 sequence (O75417 1-899): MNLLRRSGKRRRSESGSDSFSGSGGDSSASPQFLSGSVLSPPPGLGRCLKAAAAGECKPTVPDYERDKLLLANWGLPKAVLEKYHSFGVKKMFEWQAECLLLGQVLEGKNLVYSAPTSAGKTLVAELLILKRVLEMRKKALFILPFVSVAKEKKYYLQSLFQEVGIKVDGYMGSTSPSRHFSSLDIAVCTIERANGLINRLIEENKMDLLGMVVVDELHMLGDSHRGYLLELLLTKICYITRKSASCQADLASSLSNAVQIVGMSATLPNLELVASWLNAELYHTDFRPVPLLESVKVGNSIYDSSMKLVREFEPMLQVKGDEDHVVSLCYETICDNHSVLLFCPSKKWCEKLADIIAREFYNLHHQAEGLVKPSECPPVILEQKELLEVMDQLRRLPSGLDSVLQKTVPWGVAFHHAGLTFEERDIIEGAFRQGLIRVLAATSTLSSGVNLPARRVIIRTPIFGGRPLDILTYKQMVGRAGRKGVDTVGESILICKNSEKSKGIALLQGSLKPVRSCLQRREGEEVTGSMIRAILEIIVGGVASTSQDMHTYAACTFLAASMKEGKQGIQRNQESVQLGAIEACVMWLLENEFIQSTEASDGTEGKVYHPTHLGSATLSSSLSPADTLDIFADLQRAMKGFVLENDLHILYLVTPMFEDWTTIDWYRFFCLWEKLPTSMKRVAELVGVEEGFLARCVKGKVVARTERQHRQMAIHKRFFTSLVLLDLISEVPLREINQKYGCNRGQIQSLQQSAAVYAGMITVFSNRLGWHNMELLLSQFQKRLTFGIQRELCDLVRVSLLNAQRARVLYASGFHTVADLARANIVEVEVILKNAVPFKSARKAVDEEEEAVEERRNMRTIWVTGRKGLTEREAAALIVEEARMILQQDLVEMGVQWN

Compound	IC50 [nM]
COc1nnc(NC(=O)c2cnc(C)cc2-c2ccc3c(c2)CC(=O)N3)s1 [Example 347, N-(5-methoxy-1,3,4-thiadiazol-2-yl)-6-methyl-4-(2-oxo-2,3-dihydro-1H-indol-5-yl)pyridine-3-carboxamide]	1000 to 10000
COc1nnc(NC(=O)c2cnc(C)cc2-c2ccc3c(c2)OC(F)(F)O3)s1 [Example 349, 4-(2,2-difluoro-2H-1,3-benzodioxol-5-yl)-N-(5-methoxy-1,3,4-thiadiazol-2-yl)-6-methylpyridine-3-carboxamide]	1000 to 10000
COc1nnc(NC(=O)c2cnc(C)cc2-c2cc(C3CC3)nn2C2CCCCO2)s1 (stereo not drawn) [Example 350, 4-(3-cyclopropyl-1-(tetrahydro-2H-pyran-2-yl)-1H-pyrazol-5-yl)-N-(5-methoxy-1,3,4-thiadiazol-2-yl)-6-methylnicotinamide]	1000 to 10000
COc1nnc(NC(=O)c2cnc(C)cc2-c2ccn(C)c(=O)c2)s1 [Example 351, N-(5-methoxy-1,3,4-thiadiazol-2-yl)-1′,6-dimethyl-2′-oxo-1′,2′-dihydro-[4,4′-bipyridine]-3-carboxamide]	1000 to 10000
COc1nnc(NC(=O)c2cnc(C)cc2-c2ccc3[nH]ccc3c2)s1 [Example 352, 4-(1H-indol-5-yl)-N-(5-methoxy-1,3,4-thiadiazol-2-yl)-6-methylpyridine-3-carboxamide]	1000 to 10000
COc1nnc(NC(=O)c2cnc(C)cc2-c2ccc(C(N)=O)cc2)s1 [Example 353, 4-(4-carbamoylphenyl)-N-(5-methoxy-1,3,4-thiadiazol-2-yl)-6-methylpyridine-3-carboxamide]	1000 to 10000
COc1nnc(NC(=O)c2cnc(C)cc2-c2ccc(F)c(F)c2)s1 [Example 354, 4-(3,4-difluorophenyl)-N-(5-methoxy-1,3,4-thiadiazol-2-yl)-6-methylpyridine-3-carboxamide]	1000 to 10000
COc1nnc(NC(=O)c2cnc(C)cc2-c2ccc(C(F)(F)F)cc2)s1 [Example 355, N-(5-methoxy-1,3,4-thiadiazol-2-yl)-methyl4-(4-(trifluoromethyl)phenyl) nicotinamide]	1000 to 10000
COc1nnc(NC(=O)c2cnc(C)cc2-c2ccc(C(C)(C)C)cc2)s1 [Example 356, 4-(4-(tert-butyl)phenyl)-N-(5-methoxy-1,3,4-thiadiazol-2-yl)-6-methylnicotinamide]	1000 to 10000
COc1nnc(NC(=O)c2cnc(C)cc2-c2cnc3[nH]ncc3c2)s1 [Example 357, N-(5-methoxy-1,3,4-thiadiazol-2-yl)-6-methyl-4-(1H-pyrazolo[3,4-b]pyridin-5-yl)nicotinamide]	1000 to 10000
COc1nnc(NC(=O)c2cnc(C)cc2-c2cc(C)cc(C)c2)s1 [Example 358, 4-(3,5-dimethylphenyl)-N-(5-methoxy-1,3,4-thiadiazol-2-yl)-6-methylpyridine-3-carboxamide]	500 to 1000
COc1nnc(NC(=O)c2cnc(C)cc2-c2cccc(C(F)(F)F)c2)s1 [Example 359, N-(5-methoxy-1,3,4-thiadiazol-2-yl)-6-methyl-4-[3-(trifluoromethyl)phenyl]pyridine-3-carboxamide]	≤ 200
COc1nnc(NC(=O)c2cnc(C)cc2-c2cccs2)s1 [Example 360, N-(5-methoxy-1,3,4-thiadiazol-2-yl)-6-methyl-4-(thiophen-2-yl)pyridine-3-carboxamide]	1000 to 10000
COc1nnc(NC(=O)c2cnc(C)cc2-c2cccc(C)c2)s1 [Example 361, N-(5-methoxy-1,3,4-thiadiazol-2-yl)-6-methyl-4-(3-methylphenyl) pyridine-3-carboxamide]	500 to 1000
COc1nnc(NC(=O)c2cnc(C)cc2-c2cnc(N)c(C#N)c2)s1 [Example 362, 6-amino-5-cyano-N-(5-methoxy-1,3,4-thiadiazol-2-yl)-6′-methyl-[3,4′-bipyridine]-3′-carboxamide]	1000 to 10000
COc1nnc(NC(=O)c2cnc(C)cc2-c2ccc3ccccc3c2)s1 [Example 363, N-(5-methoxy-1,3,4-thiadiazol-2-yl)-6-methyl-4-(naphthalen-2-yl)pyridine-3-carboxamide]	500 to 1000
COc1nnc(NC(=O)c2cnc(C)cc2-c2cc[nH]c(=O)c2)s1 [Example 364, N-(5-methoxy-1,3,4-thiadiazol-2-yl)-6-methyl-2′-oxo-1′,2′-dihydro-[4,4′-bipyridine]-3-carboxamide]	1000 to 10000
COc1nnc(NC(=O)c2cnc(C)cc2-c2ccc(C#N)cc2)s1 [Example 365, 4-(4-cyanophenyl)-N-(5-methoxy-1,3,4-thiadiazol-2-yl)-6-methylpyridine-3-carboxamide]	1000 to 10000
COc1nnc(NC(=O)c2cnc(C)cc2-c2ccc(C(=O)O)cc2)s1 [Example 366, 4-(5-((5-methoxy-1,3,4-thiadiazol-2-yl)carbamoyl)-2-methylpyridin-4-yl)benzoic acid]	1000 to 10000
COc1nnc(NC(=O)c2cnc(C)cc2-c2cccc3ccoc23)s1 [Example 367, 4-(1-benzofuran-7-yl)-N-(5-methoxy-1,3,4-thiadiazol-2-yl)-6-methylpyridine-3-carboxamide]	200 to 500

Compound	IC50 [nM]
COc1nnc(NC(=O)c2cnc(C)cc2-c2ccc(F)cc2)s1 [Example 368, 4-(4-fluorophenyl)-N-(5-methoxy-1,3,4-thiadiazol-2-yl)-6-methylpyridine-3-carboxamide]	1000 to 10000
COc1nnc(NC(=O)c2cnc(C)cc2-c2ccc(C(=O)N(C)C)cc2)s1 [Example 369, 4-[4-(dimethylcarbamoyl)phenyl]-N-(5-methoxy-1,3,4-thiadiazol-2-yl)-6-methylpyridine-3-carboxamide]	1000 to 10000
COc1nnc(NC(=O)c2cnc(C)cc2-c2ccc(-c3ccccc3)cc2)s1 [Example 370, 4-{[1,1′-biphenyl]-4-yl}-N-(5-methoxy-1,3,4-thiadiazol-2-yl)-6-methylpyridine-3-carboxamide]	1000 to 10000
COc1nnc(NC(=O)c2cnc(C)cc2-c2ccc(S(C)(=O)=O)cc2)s1 [Example 371, N-(5-methoxy-1,3,4-thiadiazol-2-yl)-6-methyl-4-(4-(methylsulfonyl)phenyl)nicotinamide]	1000 to 10000
COc1nnc(NC(=O)c2cnc(C)cc2-c2cccc3cnccc23)s1 [Example 372, 4-(isoquinolin-5-yl)-N-(5-methoxy-1,3,4-thiadiazol-2-yl)-6-methylpyridine-3-carboxamide]	200 to 500
COc1nnc(NC(=O)c2cnc(C)cc2-c2ccc(OC(F)(F)F)cc2)s1 [Example 376, N-(5-methoxy-1,3,4-thiadiazol-2-yl)-6-methyl-4-[4-(trifluoromethoxy)phenyl]pyridine-3-carboxamide]	1000 to 10000
COc1ccc(-c2cc(C)ncc2C(=O)Nc2nnc(OC)s2)cc1 [Example 377, N-(5-methoxy-1,3,4-thiadiazol-2-yl)-4-(4-methoxyphenyl)-6-methylpyridine-3-carboxamide]	1000 to 10000
COc1nnc(NC(=O)c2cnc(C)cc2-c2ccc(S(N)(=O)=O)cc2)s1 [Example 378, N-(5-methoxy-1,3,4-thiadiazol-2-yl)-6-methyl-4-(4-sulfamoylphenyl)pyridine-3-carboxamide]	1000 to 10000
COc1nnc(NC(=O)c2cnc(C)cc2-c2ccc3c(c2)CNC3=O)s1 [Example 379, N-(5-methoxy-1,3,4-thiadiazol-2-yl)-6-methyl-4-(1-oxo-2,3-dihydro-1H-isoindol-5-yl)pyridine-3-carboxamide]	1000 to 10000
COc1nnc(NC(=O)c2cnc(C)cc2-c2ccc3c(c2)CCO3)s1 [Example 380, 4-(2,3-dihydro-1-benzofuran-5-yl)-N-(5-methoxy-1,3,4-thiadiazol-2-yl)-6-methylpyridine-3-carboxamide]	1000 to 10000
COc1nnc(NC(=O)c2cnc(C)cc2-c2ccc(C)c(C)c2)s1 [Example 381, 4-(3,4-dimethylphenyl)-N-(5-methoxy-1,3,4-thiadiazol-2-yl)-6-methylpyridine-3-carboxamide]	1000 to 10000
COc1nnc(NC(=O)c2cnc(C)cc2-c2ccc(S(=O)(=O)N(C)C)cc2)s1 [Example 382, 4-[4-(dimethylsulfamoyl)phenyl]-N-(5-methoxy-1,3,4-thiadiazol-2-yl)-6-methylpyridine-3-carboxamide]	1000 to 10000
CCc1cccc(-c2cc(C)ncc2C(=O)Nc2nnc(OC)s2)c1 [Example 383, 4-(3-ethylphenyl)-N-(5-methoxy-1,3,4-thiadiazol-2-yl)-6-methylpyridine-3-carboxamide]	500 to 1000
CNS(=O)(=O)c1ccc(-c2cc(C)ncc2C(=O)Nc2nnc(OC)s2)cc1 [Example 384, N-(5-methoxy-1,3,4-thiadiazol-2-yl)-6-methyl-4-[4-(methylsulfamoyl)phenyl]pyridine-3-carboxamide]	1000 to 10000
COc1nnc(NC(=O)c2cnc(C)cc2-c2cccc(S(N)(=O)=O)c2)s1 [Example 385, N-(5-methoxy-1,3,4-thiadiazol-2-yl)-6-methyl-4-(3-sulfamoylphenyl)pyridine-3-carboxamide]	1000 to 10000
COc1nnc(NC(=O)c2cnc(C)cc2-c2ccc(C)cc2C)s1 [Example 386, 4-(2,4-dimethylphenyl)-N-(5-methoxy-1,3,4-thiadiazol-2-yl)-6-methylpyridine-3-carboxamide]	500 to 1000
COc1nnc(NC(=O)c2cnc(C)cc2-c2ccc(NS(C)(=O)=O)cc2)s1 [Example 387, 4-(4-methanesulfonamidophenyl)-N-(5-methoxy-1,3,4-thiadiazol-2-yl)-6-methylpyridine-3-carboxamide]	1000 to 10000
COc1nnc(NC(=O)c2cnc(C)cc2-c2ccsc2)s1 [Example 388, N-(5-methoxy-1,3,4-thiadiazol-2-yl)-6-methyl-4-(thiophen-3-yl)nicotinamide]	1000 to 10000
COc1nnc(NC(=O)c2cnc(C)cc2-c2ccccc2C)s1 [Example 389, N-(5-methoxy-1,3,4-thiadiazol-2-yl)-6-methyl-4-(2-methylphenyl)pyridine-3-carboxamide]	500 to 1000
